Laboratory results as given in patent publication US12226400B2, “Neuroprotective disruption of Kv2.1/syntaxin interaction by small molecules” (UNIVERSITY OF PITTSBURGH-OF THE COMMONWEALTH SYSTEM OF …, priority 2018, dated 2025).

Experiments:
[1] = test system: primary rat cortical neuron cultures; assay: LDH toxicity assay screening for innate toxicity; format: cell-based; conditions: up to 30 μM for 24 hr
NMDA receptors = assay: Fura-2 ratiometric Ca2+ imaging during NMDA exposure; format: cell-based, rat; conditions: 10 μM cpd5, NMDA 30 μM with 10 μM glycine; ±SEM
Description: Intracellular Ca^2+ measurements were performed on the same cortical culture preparations as above, but with 20 DIV cells plated on MatTek glass-bottom 35 mm culture dishes. At this developmental stage, neurons robustly express both GluN2A and GluN2B subunits of the NMDA receptor. Neurons were incubated with the fluorescent Ca^2+ indicator Fura-2 AM ester (5 μM; Invitrogen) with 0.02% Pluronic F-127 (Invitrogen) for 1 h at 37° C. Culture dishes were then mounted on an inverted microscope stage (Olympus) and continuously perfused with a 10 mM HEPES-buffered normal salt solution. Perfusion rate (5 ml/min) was controlled with a gravity flow and a rapid-switching local perfusion system (Warner Instruments). […] A ratio of fluorescence emission (F) at 510 nm in response to excitations at 340 and 380 nm was acquired at 1 Hz (Fambda DG-4 and 10-B SmartShutter, Sutter Instruments) via camera (ORCAER, Hamamatsu) and saved to a computer using HCImage (Hamamatsu). Baseline Ca^2+ signals were recorded for 2 min before the first application of NMDA (30 μM plus 10 μM glycine) with or without 10 μM cpd5 (Cat #MolPort-009-741-732, Molport). […] Peak increases in intracellular calcium concentration were measured by calculating F/Fo (F, peak fluorescence; Fo, average signal across 2 min baseline period). The area under the response for the first 15 min of NMDA application was also calculated.

munc18/syntaxin 1A = molecular target: T1, munc18/syntaxin 1A (Homo sapiens, UniProt Q16623); assay: Co-immunoprecipitation of munc18 and syntaxin in transfected HEK293 cells; format: cell-based; conditions: mean±SEM
T1 construct: syntaxin 1A plasmid a gift RC204873; host or cells: HEK293
T1 sequence (Q16623 whole entry, species assumed): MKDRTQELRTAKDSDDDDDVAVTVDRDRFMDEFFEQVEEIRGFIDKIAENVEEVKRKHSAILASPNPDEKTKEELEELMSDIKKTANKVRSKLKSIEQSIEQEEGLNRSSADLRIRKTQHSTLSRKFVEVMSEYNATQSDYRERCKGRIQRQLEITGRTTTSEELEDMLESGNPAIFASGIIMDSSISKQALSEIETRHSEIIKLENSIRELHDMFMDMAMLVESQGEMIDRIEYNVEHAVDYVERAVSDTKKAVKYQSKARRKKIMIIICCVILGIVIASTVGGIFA
Description: Western Blot. Co-immunoprecipitation of munc18 and syntaxin was carried out using PEI transfection of HEK293 cells (American Type Culture Collection) plated and maintained in DMEM medium with 10% FBS and penicillin/streptomycin. 24 hr prior to transfection, HEK293 cells are plated onto 150 mm petri dishes from confluent T75 flasks at the ratio of 2/3 flask per plate. 24 hr after plating, PEI transfection was carried out by mixing 25% munc18 (OriGene RC204873), 25% syntaxin 1A (gift from Raymond A Frizzell, Children's Hospital of Pittsburgh), and 50% pcDNA3 (Invitrogen) plasmids ([…] total plasmids with 500 μl medium without penicillin/streptomycin, and 110 μl PEI at 1 mg/ml). The PEI was lastly added to the mixture drop-wise to avoid clumping of the DNA precipitates. This transfection reagent was allowed to incubate in room temperature for at least 5 min. The HEK293 medium was replaced with medium without penicillin/streptomycin prior to the addition of the transfection mixture. At 24 hr after transfection, the transfection medium was replaced with regular medium containing either cpd5 or DMSO. The cells were lysed and protein was harvested 24 hr after cpd5/DMSO treatment using 200 μl NP40 buffer (Invitrogen) containing phenylmethylsulfonyl fluoride (PMSF, Sigma-Aldrich) and protease inhibitor cocktail (¼ tablet, cOmplete Mini, EDTA-free, Sigma-Aldrich). The resulting HEK293 sample was immunoprecipitated using mouse anti-syntaxin 1A antibody (abeam). The western blot was probed using the Biogen system with the same syntaxin 1A antibody and mouse anti-Flag (Sigma-Aldrich) used for the detection of munc18. Quantification of protein pulldown was normalized to the syntaxin signal before comparisons. SDS-PAGE in this study are run in 10% acrylamide. Small variations in band separation are caused by the semi-wet transfer method.

Compound: COc1ccc(CNC(=O)Nc2cccc(-c3nc4ccccc4s3)c2)cc1OC [cpd5, 3-[3-(1,3-benzothiazol-2-yl)phenyl]-1-[(3,4-dimethoxyphenyl)methyl]urea]
- innate toxicity (LDH) [1]: no innate toxicity
- innate toxicity (LDH) ([1]; listed as Cpd5): No neurotoxicity was observed
- NMDA-induced Ca2+ response, AUC treated (NMDA receptors): 104.67±1.98 % Control
- NMDA-induced Ca2+ response, F-peak treated (NMDA receptors): 101.26±1.47 % Control
- munc18 co-immunoprecipitated with syntaxin, cpd5/DMSO (munc18/syntaxin 1A; 10 μM cpd5, 24 hr): 1.032±0.034
- munc18 co-immunoprecipitated with syntaxin, cpd5/DMSO (munc18/syntaxin 1A; 30 μM cpd5, 24 hr): 0.4459±0.09367
- munc18 co-immunoprecipitated with syntaxin, cpd5/DMSO (munc18/syntaxin 1A; 100 μM cpd5, 24 hr): 0.4339±0.135
